Data published in patent US20230112484A1, “COMPOSITIONS FOR CROP PROTECTION” (Agrematch Ltd., priority 2020, published 2023).

Legend:
Assay type in all cases: in vivo
[1] = system: Amaranthus palmeri; assay: Pre-emergence application (Example 5); conditions: score 0 = complete germination inhibition, 100 = no effect
Procedure: For pre-emergence application, compounds were dissolved in DMSO and then in distilled water to get 0.1-2 mg/ml solution with 2% DMSO. 2% DMSO solution in water was used as a negative control. As a positive control, 0.2 mg/ml oxyfluorfen ([…]) solution was used. For pre-emergence application, flowerpots were filled with 30 g of soil, and 4-5 Amaranthus palmeri seeds were sowed in each flowerpot. Each treatment contained 3 flowerpots. Each flowerpot was sprayed with 1.5 ml of the dissolved compound. Soil was let dry for about 1 hour at room conditions, and then each flowerpot was sub-irrigated with 40 ml water and incubated under conditions provided below. Amaranthus palmeri was incubated at 25° C. for 8 hr in dark, followed by 16 hr at 30° C. in light. Germination was assessed and scored after 4-7 days. Scoring scale: 0-complete germination inhibition, 100-no effect.

[2] = system: Amaranthus palmeri; assay: Post-emergence application (Example 5); conditions: score 0 = complete phytotoxic effect, 100 = no effect
Procedure: (§1) For post-emergence application, compounds were dissolved in DMSO and then in distilled water to get 0.05-2 mg/ml solution with 2% DMSO. Break-Thru surfactant was added to a final concentration of 0.05%. Negative control—an aqueous solution of 2% DMSO and 0.05% Break-Thru. Positive control—2 mg/ml Glyphosate (Roundup). For post-emergence application, 1.5 ml of each compound solution were sprayed on the foliage of Amaranthus palmeri, which were 10 days old at the day of the experiment. Each treatment contained 3 pots. Plants were let dry for about 15 minutes at room conditions, and then incubated at controlled growth chambers. Phytotoxicity was assessed and scored 4-10 days after applications. Scoring scale: 0—complete phytotoxic effect, 100—no effect.

[3] = system: Setaria viridis; assay: Herbicidal effect against Setaria viridis (Example 5); conditions: for Herbicidal effect against Setaria viridis, result in words: in vivo
[4] = system: Amaranthus palmeri; assay: Soil germination (Example 1); conditions: for Amaranthus palmeri soil germination: score 0 = complete germination inhibition, 100 = no effect; for soil germination of Amaranthus palmeri, result in words: concentration not given
Procedure: (§2) Compounds were dissolved in DMSO and then in distilled water to get 0.01-2 mg/ml solution with 1% or 2% DMSO. 1% or 2% DMSO solution in water was used as a negative control. As a positive control, 0.1 or 0.2 mg/ml oxyfluorfen (Galigan) solution was used.
(§3) Flowerpots were filled with 30 g of soil, and 4-5 seeds were sowed in each flowerpot. Each treatment contained 3 flowerpots. Each flowerpot was sprayed with 1.5 ml of the dissolved compound. Soil was let dry for about 1 hour at room conditions, and then each flowerpot was sub-irrigated with 40 ml water and incubated under conditions provided below.
(§4) Amaranthus palmeri was incubated at 25° C. for 8 hr in dark, followed by 16 hr at 30° C. in light. Lolium rigidum was incubated at 21° C. for 8 hr in dark, followed by 16 hr at 21° C. in light. Germination was assessed and scored after 4-7 days. Scoring scale: 0—complete germination inhibition, 100—no effect.

[5] = system: Lolium rigidum; assay: Soil germination (Example 1); conditions: for Lolium rigidum soil germination: score 0 = complete germination inhibition, 100 = no effect; for soil germination of Lolium rigidum, result in words: concentration not given
Procedure: as §2, §3, §4

[6] = system: Abutilon theophrasti; assay: Soil germination (Example 3); conditions: 0.1 mg/ml; score 0 = complete germination inhibition, 100 = no effect; after 7 days
Procedure: (§5) Compounds were dissolved in DMSO and then in distilled water to get 0.1 or 0.5 mg/ml solution with 2% DMSO. 2% DMSO solution in water was used as a negative control. No positive control was used in this assay. Flowerpots were filled with 30 g of soil, each treatment contained three flowerpots. Each flowerpot was sprayed with 1.5 ml of the dissolved compound. Soil was let dry for about 1 hour at room conditions, and then each flowerpot was sub-irrigated with 40 ml water and incubated at controlled growth chambers, under conditions provided on table 6. Gemination was assessed and scored after 7 days. Scoring scale: 0—complete germination inhibition, 100—no effect. [table]

[7] = system: Amaranthus palmeri; assay: Soil germination (Example 3); conditions: 0.1 mg/ml; score 0 = complete germination inhibition, 100 = no effect; after 7 days
Procedure: as §5

[8] = system: Echinochloa colonum; assay: Soil germination (Example 3); conditions: 0.1 mg/ml; score 0 = complete germination inhibition, 100 = no effect; after 7 days
Procedure: as §5

[9] = system: Setaria adhaerens; assay: Soil germination (Example 3); conditions: 0.1 mg/ml; score 0 = complete germination inhibition, 100 = no effect; after 7 days
Procedure: as §5

[10] = system: Triticum vulgare; assay: Soil germination (Example 3); conditions: 0.1 mg/ml; score 0 = complete germination inhibition, 100 = no effect; after 7 days
Procedure: as §5

[11] = system: Zea mays; assay: Soil germination (Example 3); conditions: 0.1 mg/ml; score 0 = complete germination inhibition, 100 = no effect; after 7 days
Procedure: as §5

[12] = system: Amaranthus palmeri; assay: Residual activity greenhouse assay; conditions: seeds sowed three weeks after pre-emergence application
From the text: Residual activity of Compound 1 and Compound 2 was examined in greenhouse assay. Three weeks after pre-emergence application, new Amaranthus palmeri seeds were sowed on the same pots and germination was followed.

[13] = system: Triticum vulgare; assay: Foliar experiment (Example 2); conditions: 0.1 mg/ml; score 0 = complete phytotoxic effect, 100 = no effect
Procedure: as §1, with “Compounds were” for “For post-emergence application, compounds were”, “get 0.1 or 0.5” for “get 0.05-2”, “(Roundup).” for “(Roundup). For post-emergence application,”, “of different plants,” for “of Amaranthus palmeri,”, “were 6-16” for “were 10”, “effect. [table]” for “effect.”

[14] = system: Zea mays; assay: Foliar experiment (Example 2); conditions: 0.1 mg/ml; score 0 = complete phytotoxic effect, 100 = no effect
Procedure: as §1, with “Compounds were” for “For post-emergence application, compounds were”, “get 0.1 or 0.5” for “get 0.05-2”, “(Roundup).” for “(Roundup). For post-emergence application,”, “of different plants,” for “of Amaranthus palmeri,”, “were 6-16” for “were 10”, “effect. [table]” for “effect.”

[15] = system: Lolium rigidum; assay: Soil germination (Example 3); conditions: 0.1 mg/ml; score 0 = complete germination inhibition, 100 = no effect; after 7 days
Procedure: as §5

[16] = 2 mg/ml, 4-10 days after application

CC(Cl)/C=C/C(=O)N(CCC(C)C)Cc1cnc(Cl)s1 (centres unmarked) [Compound 15]
Pre-emergence Amaranthus palmeri herbicidal activity ([1]; 0.1 mg/ml): 20
Pre-emergence Amaranthus palmeri herbicidal activity ([1]; 0.25 mg/ml): 0
Post-emergence Amaranthus palmeri herbicidal activity ([2]; 0.25 mg/ml): 5
Post-emergence Amaranthus palmeri herbicidal activity ([2]; 0.5 mg/ml): 0
Herbicidal effect against Setaria viridis, result in words [3]: moderate herbicidal effect

Cc1ccsc1CN(CC(C)C)C(=O)/C=C/C(C)Cl (centres unmarked) [Compound 6]
Amaranthus palmeri soil germination ([4]; 0.1 mg/ml): 100
Amaranthus palmeri soil germination ([4]; 0.25 mg/ml): 100
Amaranthus palmeri soil germination ([4]; 0.5 mg/ml): 100
Amaranthus palmeri soil germination ([4]; 1 mg/ml): 70
Amaranthus palmeri soil germination ([4]; 2 mg/ml, after 4-7 days): 0
soil germination of Amaranthus palmeri, result in words [4]: active
Lolium rigidum soil germination ([5]; 2 mg/ml): 30
soil germination of Lolium rigidum, result in words [5]: active

CC(Cl)/C=C/C(=O)N(Cc1ccc(C#N)nc1)CC(C)C (centres unmarked) [Compound 13]
Pre-emergence Amaranthus palmeri herbicidal activity ([1]; 0.1 mg/ml): 30
Pre-emergence Amaranthus palmeri herbicidal activity ([1]; 0.25 mg/ml): 0
Post-emergence Amaranthus palmeri herbicidal activity ([2]; 0.05 mg/ml): 10
Post-emergence Amaranthus palmeri herbicidal activity ([2]; 0.075 mg/ml): 0
Herbicidal effect against Setaria viridis, result in words [3]: moderate herbicidal effect

CC(Cl)/C=C/C(=O)N(CCC(C)C)Cc1ccc(Cl)nc1 (centres unmarked) [Compound 12]
Pre-emergence Amaranthus palmeri herbicidal activity ([1]; 0.1 mg/ml): 20
Pre-emergence Amaranthus palmeri herbicidal activity ([1]; 0.25 mg/ml): 5
Post-emergence Amaranthus palmeri herbicidal activity ([2]; 0.05 mg/ml): 0
Post-emergence Amaranthus palmeri herbicidal activity ([2]; 0.075 mg/ml): 0
Herbicidal effect against Setaria viridis, result in words [3]: moderate herbicidal effect

CC(F)/C=C/C(=O)N(Cc1ccc(Cl)nc1)CC(C)C (centres unmarked) [Compound 3]
Amaranthus palmeri soil germination ([4]; 0.1 mg/ml): 30

CCOCC#CCN(CC(C)C)C(=O)/C=C/C(C)Cl (centres unmarked) [Compound 9]
Pre-emergence Amaranthus palmeri herbicidal activity ([1]; 0.1 mg/ml): 60
Pre-emergence Amaranthus palmeri herbicidal activity ([1]; 0.25 mg/ml): 50
Pre-emergence Amaranthus palmeri herbicidal activity ([1]; 2 mg/ml, after 4-7 days): 0
Post-emergence Amaranthus palmeri herbicidal activity [2, 16]: 80

CCC#CCN(CC(C)C)C(=O)/C=C/C(C)Cl (centres unmarked) [Compound 8]
Pre-emergence Amaranthus palmeri herbicidal activity ([1]; 0.1 mg/ml): 100
Pre-emergence Amaranthus palmeri herbicidal activity ([1]; 0.25 mg/ml): 40
Pre-emergence Amaranthus palmeri herbicidal activity ([1]; 2 mg/ml, after 4-7 days): 0
Post-emergence Amaranthus palmeri herbicidal activity [2, 16]: 30

CC(Cl)/C=C/C(=O)N(CC(C)C)CC(F)(F)F (centres unmarked) [Compound 11]
Pre-emergence Amaranthus palmeri herbicidal activity ([1]; 0.1 mg/ml): 15
Pre-emergence Amaranthus palmeri herbicidal activity ([1]; 0.25 mg/ml): 5
Pre-emergence Amaranthus palmeri herbicidal activity ([1]; 2 mg/ml, after 4-7 days): 0
Post-emergence Amaranthus palmeri herbicidal activity [2, 16]: 60

CC(Cl)/C=C/C(=O)N(CCC(C)C)Cc1ccc(Cl)s1 (centres unmarked) [Compound 14]
Pre-emergence Amaranthus palmeri herbicidal activity ([1]; 0.1 mg/ml): 20
Pre-emergence Amaranthus palmeri herbicidal activity ([1]; 0.25 mg/ml): 5
Post-emergence Amaranthus palmeri herbicidal activity ([2]; 0.25 mg/ml): 20
Post-emergence Amaranthus palmeri herbicidal activity ([2]; 0.5 mg/ml): 20
Herbicidal effect against Setaria viridis, result in words [3]: moderate herbicidal effect

C#CCOCC#CCN(CC(C)C)C(=O)/C=C/C(C)Cl (centres unmarked) [Compound 10]
Pre-emergence Amaranthus palmeri herbicidal activity ([1]; 0.1 mg/ml): 100
Pre-emergence Amaranthus palmeri herbicidal activity ([1]; 0.25 mg/ml): 5
Pre-emergence Amaranthus palmeri herbicidal activity ([1]; 2 mg/ml, after 4-7 days): 0
Post-emergence Amaranthus palmeri herbicidal activity [2, 16]: 70

CC(Cl)/C=C/C(=O)N(CC(C)C)CC(C)C (centres unmarked) [Compound 1]
Amaranthus palmeri soil germination ([4]; 0.01 mg/ml): 80
Amaranthus palmeri soil germination ([4]; 0.025 mg/ml): 30
Amaranthus palmeri soil germination ([4]; 0.05 mg/ml): 0
Amaranthus palmeri soil germination ([4]; 0.1 mg/ml): 0
Amaranthus palmeri soil germination ([4]; 0.25 mg/ml): 0
soil germination of Amaranthus palmeri, result in words [4]: active
Lolium rigidum soil germination ([5]; 0.5 mg/ml): 60
soil germination of Lolium rigidum, result in words [5]: active
Herbicidal activity, soil germination, Abutilon theophrasti [6]: 100
Herbicidal activity, soil germination, Amaranthus palmeri [7]: 0
Herbicidal activity, soil germination, Echinochloa colonum [8]: 100
Herbicidal activity, soil germination, Setaria adhaerens [9]: 60
Herbicidal activity, soil germination, Triticum vulgare [10]: 100
Herbicidal activity, soil germination, Zea mays [11]: 100
Residual activity: germination of newly sowed Amaranthus palmeri seeds [12]: germination was observed

CC(Cl)/C=C/C(=O)N(Cc1ccc(Cl)nc1)CC(C)C (centres unmarked) [Compound 2]
Amaranthus palmeri soil germination ([4]; 0.01 mg/ml): 60
Amaranthus palmeri soil germination ([4]; 0.025 mg/ml): 50
Amaranthus palmeri soil germination ([4]; 0.05 mg/ml): 0
Amaranthus palmeri soil germination ([4]; 0.1 mg/ml): 0
Herbicidal activity, foliar, Triticum vulgare [13]: 90
Herbicidal activity, foliar, Zea mays [14]: 90
Herbicidal activity, soil germination, Abutilon theophrasti [6]: 100
Herbicidal activity, soil germination, Amaranthus palmeri [7]: 0
Herbicidal activity, soil germination, Echinochloa colonum [8]: 100
Herbicidal activity, soil germination, Lolium rigidum [15]: 90
Herbicidal activity, soil germination, Setaria adhaerens [9]: 80
Herbicidal activity, soil germination, Triticum vulgare [10]: 100
Herbicidal activity, soil germination, Zea mays [11]: 100
Residual activity: germination of newly sowed Amaranthus palmeri seeds [12]: no germination was observed

COc1ccc(CN(CC(C)C)C(=O)/C=C/[C@@H](C)Cl)cc1 [reference compound]
Amaranthus palmeri soil germination ([4]; 0.1 mg/ml): substantially less active
Lolium rigidum soil germination ([5]; 0.5 mg/ml): unable to reduce soil germination

CC#CCN(CC(C)C)C(=O)/C=C/C(C)Cl (centres unmarked) [Compound 7]
Pre-emergence Amaranthus palmeri herbicidal activity ([1]; 0.1 mg/ml): 10
Pre-emergence Amaranthus palmeri herbicidal activity ([1]; 0.25 mg/ml): 5
Pre-emergence Amaranthus palmeri herbicidal activity ([1]; 2 mg/ml, after 4-7 days): 0
Post-emergence Amaranthus palmeri herbicidal activity [2, 16]: 40

CC(Cl)/C=C/C(=O)N(CCC(C)C)CCC(C)C (centres unmarked) [Compound 16]
Pre-emergence Amaranthus palmeri herbicidal activity ([1]; 0.1 mg/ml): 10
Pre-emergence Amaranthus palmeri herbicidal activity ([1]; 0.25 mg/ml): 0
Post-emergence Amaranthus palmeri herbicidal activity ([2]; 0.25 mg/ml): 50
Post-emergence Amaranthus palmeri herbicidal activity ([2]; 0.5 mg/ml): 10
Inhibition of Setaria viridis ([3]; applying to the area under cultivation): more than 30%
Herbicidal effect against Setaria viridis, result in words [3]: very good herbicidal effect
